One experiment deals with JAK1 (Homo sapiens (Human), UniProt P23458). The experiment is described as follows: JAK1 enzyme activity assay (Thermo Fisher SelectScreen Z-lyte). In kind it is biochemical. Conditions: 1 hour kinase reaction, read-out: JAK1 Inhibition IC50. As to the method: The inhibitory potency of candidate compounds of JAK1 done at Thermo Fisher Scientific in their Selectscreen using a Z-lyte assay. The 2×JAK1/Tyr 06 mixture is prepared in 50 mM HEPES pH 6.5, 0.01% BRIJ-35, 10 mM MgCl2, 1 mM EGTA, 0.02% NaN3. The final 10 μL of the Kinase Reaction consists of 21.2-91.5 ng JAK1 and 2 μM Tyr 06 in 50 mM HEPES pH 7.0, 0.01% BRIJ-35, 10 mM MgCl2, 1 mM EGTA, 0.01% NaN3. After the 1 hour Kinase Reaction incubation, 5 μL of a 1:128 dilution of Development Reagent is added.
JAK1, sequence (P23458 whole entry): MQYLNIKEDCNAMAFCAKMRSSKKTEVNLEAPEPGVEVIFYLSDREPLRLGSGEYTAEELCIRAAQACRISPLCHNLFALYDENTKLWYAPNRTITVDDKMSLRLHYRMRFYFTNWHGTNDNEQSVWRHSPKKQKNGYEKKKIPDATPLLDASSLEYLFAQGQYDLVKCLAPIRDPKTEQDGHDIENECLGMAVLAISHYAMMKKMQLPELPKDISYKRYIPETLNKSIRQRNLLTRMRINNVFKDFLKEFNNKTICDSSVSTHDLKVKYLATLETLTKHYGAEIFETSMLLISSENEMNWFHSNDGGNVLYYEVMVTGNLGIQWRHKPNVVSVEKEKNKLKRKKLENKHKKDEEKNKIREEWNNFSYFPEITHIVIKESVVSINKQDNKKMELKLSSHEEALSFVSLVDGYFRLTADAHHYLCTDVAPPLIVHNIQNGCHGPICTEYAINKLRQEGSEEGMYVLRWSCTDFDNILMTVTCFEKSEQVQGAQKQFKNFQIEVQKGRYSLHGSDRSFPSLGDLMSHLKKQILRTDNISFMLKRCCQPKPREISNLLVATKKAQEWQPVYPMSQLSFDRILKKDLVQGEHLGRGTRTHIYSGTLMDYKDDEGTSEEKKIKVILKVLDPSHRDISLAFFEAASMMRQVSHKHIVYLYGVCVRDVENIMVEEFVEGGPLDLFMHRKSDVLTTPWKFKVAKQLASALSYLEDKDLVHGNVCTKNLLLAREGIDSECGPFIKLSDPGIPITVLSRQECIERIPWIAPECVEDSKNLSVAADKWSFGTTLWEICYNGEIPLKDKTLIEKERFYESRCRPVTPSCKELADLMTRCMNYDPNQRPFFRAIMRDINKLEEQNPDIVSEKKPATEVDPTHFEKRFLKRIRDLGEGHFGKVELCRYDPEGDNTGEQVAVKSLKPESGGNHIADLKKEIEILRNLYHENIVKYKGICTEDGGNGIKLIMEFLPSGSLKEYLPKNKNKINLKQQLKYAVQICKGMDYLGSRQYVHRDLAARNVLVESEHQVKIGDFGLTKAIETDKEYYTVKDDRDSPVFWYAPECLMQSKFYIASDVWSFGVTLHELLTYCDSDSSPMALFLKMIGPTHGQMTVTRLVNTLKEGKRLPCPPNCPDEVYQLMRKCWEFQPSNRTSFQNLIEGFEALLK
(§1) Background signal is defined in the absence of enzyme and uninhibited signal is defined in the presence of vehicle (2% DMSO) alone. Compounds were evaluated in an 11 point dose-response ranging from […] to 0.34 nM. IC50 values of compounds are determined using a 4 parameter logistical fit of emission ratio as a function of the concentration of compound.

The next experiment addresses JAK3 (a.a. 781-1124) (Homo sapiens (Human), UniProt P52333). In words: JAK3 enzyme activity assay (SRCtide phosphorylation, Caliper). Conditions: 2.5 nM JAK3, 1 μM SRCtide, 1 uM ATP, 40 minutes; read-out: JAK3 Inhibition IC50. It is filed as biochemical. As to the method: The activity of JAK3 (a.a. 781-1124, ThermoFisher) was quantified by measuring the phosphorylation of SRCtide (FAM-GEEPLYWSFPAKKK-NH2). Kinase reactions were run in a 384-well Greiner plate with 2% final DMSO concentration under the buffer conditions of 20 mM HEPES, pH 7.5, 10 mM MgCl2, 0.01% BSA, and 0.0005% Tween-20. The kinase reaction components were 2.5 nM JAK3, 1 μM SRCtide peptide and 1 uM ATP. Examples were tested in dose-response starting at 2 μM (11 concentrations, 3-fold serial dilution, duplicate reactions). The reactions were incubated at room temperature for 40 minutes, then stopped by adding a 1:1 volume of 30 mM EDTA in 20 mM HEPES, pH 7.5 (15 mM EDTA final). After the reaction was stopped, the phosphorylated and unphosphorylated peptides were separated and quantified using a Caliper LC3000/EZ-Reader system and HTS Well Analyzer Software (Caliper, A PerkinElmer Company, Hopkinton, Mass.). GraFit (Erithacus Software Ltd., Horley, U.K.) was used to calculate inhibitor potency by fitting dose-response data to the 4-parameter logistical IC50 equation.
as §1

For experiment [1], the system named is IL-2 stimulated STAT5 phosphorylation on Tyr694 (JAK1/3). The experiment is described as follows: JAK1/3 cellular target modulation: IL-2 stimulated phospho-STAT5 in PBMC. It is filed as cell-based. The settings on record: IL-2 25 ng/ml, 1 hour compound preincubation, read-out: IL2-STAT5 Inhibition IC50. From the text:
(§2) Target modulation was based upon the ability of a compound to inhibit JAK isoform specific phosphorylation of selected substrates. IL-2 stimulated STAT5 phosphorylation on Tyr694 was used to assess JAK1/3 compound selectivity. GM-CSF stimulated STAT5 phosphorylation on Tyr694 was used to assess JAK2 compound selectivity. IFNγ stimulated STAT1 phosphorylation on Tyr701 was used to assess JAK1/2 compound selectivity. For all three assays, human PBMC from frozen stocks were thawed, pelleted, resuspended in complete media (90% RPMI, 10% heat inactivated FBS, 10 mM HEPES, 47 μM 2-ME, pen/strep) and placed in wells of a 96 well V-bottom plate at 200,000 per well in 120 μl complete media. Compounds were added as 15 μl per well of 10× working stock solutions in complete media with 1% DMSO (or medium with 1% DMSO for controls) and placed on a plate shaker in a 37° C. incubator with 5% CO2 for 1 hour with gentle shaking (setting of 3). Stimulation used the addition of soluble cytokines. For the JAK1/3 phospho-STAT5 assay, 15 μl of 10× working stock recombinant human IL-2 was added to a final concentration of 25 ng/ml. For the JAK2 phospho-STAT5 assay, 15 μl of 10× working stock recombinant human GM-CSF was added to a final concentration of 5 ng/ml. For the JAK1/2 phospho-STAT1 assay, 15 μl of 10× working stock of recombinant human IFNγ was added to a final concentration of 10 ng/ml. Plates were then placed back on the plate shaker in the incubator for an additional 5, 5 and 10 minutes respectively upon which the plates were removed from the incubator, sealed with a plate sealer and the cells pelleted at 400×g for 5 minutes. After pelleting, the media was removed by aspiration and the cells were lysed in ELISA specific cell lysis buffer. The levels of phospho-STAT5 were determined using a Phospho (Tyr694)/Total STAT5a,b Whole Cell Lysate kit from Meso Scale Discovery. Levels of phospho-STAT1 were determined using a CST-PathScan Phospho-STAT1 (Tyr701) Sandwich ELISA kit.

The test system of experiment [2] is IFNγ stimulated STAT1 phosphorylation on Tyr701 (JAK1/2). In words: JAK1/2 cellular target modulation: IFNγ stimulated phospho-STAT1 in PBMC. It is filed as cell-based. The settings on record: IFNγ 10 ng/ml, 1 hour compound preincubation, read-out: Infγ-STAT1 IC50.
Description: as §2

Read-outs that look alike come from different tables or passages of the source.

JAK3 (a.a. 781-1124), sequence (P52333 781-1124): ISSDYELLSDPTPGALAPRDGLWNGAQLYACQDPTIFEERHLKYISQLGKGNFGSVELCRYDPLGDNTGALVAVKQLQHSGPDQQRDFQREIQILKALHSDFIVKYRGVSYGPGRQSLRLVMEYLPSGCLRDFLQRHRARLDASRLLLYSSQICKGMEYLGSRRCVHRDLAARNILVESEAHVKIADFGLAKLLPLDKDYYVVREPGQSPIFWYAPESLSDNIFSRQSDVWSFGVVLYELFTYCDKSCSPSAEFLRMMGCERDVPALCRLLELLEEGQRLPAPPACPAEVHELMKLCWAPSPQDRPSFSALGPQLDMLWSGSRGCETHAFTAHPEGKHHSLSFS

The term IC50 denotes the concentration that inhibits the measured activity by half. As to `CCOC(=O)c1cnc2[nH]ccc2c1N[C@H]1CC[C@H](O)C1` (single isomer, unassigned) [Example 75, (trans)-ethyl 4-((3-hydroxycyclopentyl)amino)-1H-pyrrolo[2,3-b]pyridine-5-carboxylate], the IC50 was 10 to 100 nM at JAK1; 10 to 100 nM at JAK3 (a.a. 781-1124); 100 to 1000 nM in experiment [1] (Homo sapiens, PBMC); above 1000 nM in experiment [2] (Homo sapiens, PBMC).
For the compound `N#CCC(=O)N1CCC[C@@H](Nc2c(C(=O)OCC3CC3)cnc3[nH]ccc23)C1` [Example 145, cyclopropylmethyl (R)-4-((1-(2-cyanoacetyl)piperidin-3-yl)amino)-1H-pyrrolo[2,3-b]pyridine-5-carboxylate], the IC50 on JAK1 is at most 10 nM; on JAK3 (a.a. 781-1124), 10 to 100 nM; in experiment [1] (Homo sapiens, PBMC) it was at most 100 nM; in experiment [2] (Homo sapiens, PBMC), 100 to 1000 nM.
The corresponding values for `CCOC(=O)c1cnc2[nH]ccc2c1N[C@@H]1CCCN(CCC#N)C1` [Example 123, ethyl (R)-4-((1-(2-cyanoethyl)piperidin-3-yl)amino)-1H-pyrrolo[2,3-b]pyridine-5-carboxylate] are at most 10 nM, at most 10 nM, at most 100 nM and 100 to 1000 nM.
For `CCOC(=O)c1cnc2[nH]ccc2c1N[C@@H]1CC[C@H](C)N(C(=O)CC#N)C1` [Example 146, ethyl 4-(((3R,6S)-1-(2-cyanoacetyl)-6-methylpiperidin-3-yl)amino)-1H-pyrrolo[2,3-b]pyridine-5-carboxylate], in that order: at most 10 nM, at most 10 nM, at most 100 nM and at most 100 nM.
The corresponding values for `CCOC(=O)c1cnc2[nH]ccc2c1NC1CCCC(O)C1` (stereo not drawn) [Example 141, ethyl 4-((3-hydroxycyclohexyl)amino)-1H-pyrrolo[2,3-b]pyridine-5-carboxylate] are 10 to 100 nM, 10 to 100 nM, 100 to 1000 nM and above 1000 nM.
As to `CCOC(=O)c1cnc2[nH]ccc2c1NC1CCC(OCCC#N)C1` (stereo not drawn) [Example 113, ethyl 4-((3-(2-cyanoethoxy)cyclopentyl)amino)-1H-pyrrolo[2,3-b]pyridine-5-carboxylate], the half-maximal inhibitory concentration (IC50) is 10 to 100 nM at JAK1; 10 to 100 nM on JAK3 (a.a. 781-1124); 100 to 1000 nM in experiment [1] (Homo sapiens, PBMC); above 1000 nM in experiment [2] (Homo sapiens, PBMC).
With `CCOC(=O)c1cnc2[nH]ccc2c1N(C)[C@H]1CN(C(=O)CC#N)CC[C@H]1C` [Example 1, ethyl 4-(((3R,4R)-1-(2-cyanoacetyl)-4-methylpiperidin-3-yl)(methyl)amino)-1H-pyrrolo[2,3-b]pyridine-5-carboxylate], the IC50 was 10 to 100 nM on JAK1; 10 to 100 nM at JAK3 (a.a. 781-1124); 100 to 1000 nM in experiment [1] (Homo sapiens, PBMC); above 1000 nM in experiment [2] (Homo sapiens, PBMC).
Consider `CC(C)OC(=O)c1cnc2[nH]ccc2c1N[C@H]1CN(C(=O)CC#N)CC[C@H]1C` [Example 124, isopropyl 4-(((3R,4R)-1-(2-cyanoacetyl)-4-methylpiperidin-3-yl)amino)-1H-pyrrolo[2,3-b]pyridine-5-carboxylate], for which the IC50 on JAK1 was 10 to 100 nM; at JAK3 (a.a. 781-1124), 10 to 100 nM; in experiment [1] (Homo sapiens, PBMC) it was 100 to 1000 nM; in experiment [2] (Homo sapiens, PBMC) it was above 1000 nM.
Consider `CCOC(=O)c1cnc2[nH]ccc2c1N[C@@H]1CCCN(C(=O)C(C)C#N)C1` (stereo partly drawn) [Example 129, ethyl 4-(((3R)-1-(2-cyanopropanoyl)piperidin-3-yl)amino)-1H-pyrrolo[2,3-b]pyridine-5-carboxylate], for which the IC50 on JAK1 is at most 10 nM; at JAK3 (a.a. 781-1124), at most 10 nM; in experiment [1] (Homo sapiens, PBMC), at most 100 nM; in experiment [2] (Homo sapiens, PBMC), 100 to 1000 nM.
Regarding `COCCOC(=O)c1cnc2[nH]ccc2c1N[C@H]1CN(C(=O)CC#N)CC[C@H]1C` [Example 21, 2-methoxyethyl 4-(((3R,4R)-1-(2-cyanoacetyl)-4-methylpiperidin-3-yl)amino)-1H-pyrrolo[2,3-b]pyridine-5-carboxylate], the IC50 at JAK1 is 10 to 100 nM; at JAK3 (a.a. 781-1124) it was at most 10 nM; in experiment [1] (Homo sapiens, PBMC), 100 to 1000 nM; in experiment [2] (Homo sapiens, PBMC), above 1000 nM.
On to `CCOC(=O)c1cnc2[nH]ccc2c1N(C)[C@H]1CC[C@H](OC(=O)CC#N)C1` (single isomer, unassigned) [Example 70, (trans)-ethyl 4-((3-(2-cyanoacetoxy)cyclopentyl)(methyl)amino)-1H-pyrrolo[2,3-b]pyridine-5-carboxylate], for which the half-maximal inhibitory concentration (IC50) on JAK1 is 10 to 100 nM; on JAK3 (a.a. 781-1124), 100 to 1000 nM; in experiment [1] (human PBMC) it was 100 to 1000 nM; in experiment [2] (Homo sapiens, PBMC), above 1000 nM.
As to `CCOC(=O)c1cnc2[nH]ccc2c1N[C@@H]1CCCN(C(=O)C(C)(C)C#N)C1` [Example 144, ethyl (R)-4-((1-(2-cyano-2-methylpropanoyl)piperidin-3-yl)amino)-1H-pyrrolo[2,3-b]pyridine-5-carboxylate], the IC50 on JAK1 lay within 10 to 100 nM; at JAK3 (a.a. 781-1124), 10 to 100 nM; in experiment [1] (Homo sapiens, PBMC) it was 100 to 1000 nM; in experiment [2] (Homo sapiens, PBMC) it was 100 to 1000 nM.
For `CCOC(=O)c1cnc2[nH]ccc2c1NC1CCC(CCC#N)C1` (single isomer, unassigned; stereoisomer 2) [Example 155, Ethyl 4-((3-(2-cyanoethyl)cyclopentyl)amino)-1H-pyrrolo[2,3-b]pyridine-5-carboxylate, single stereoisomer 2], the 50% inhibitory concentration (IC50) at JAK1 was 100 to 1000 nM; at JAK3 (a.a. 781-1124), 10 to 100 nM; in experiment [1] (human PBMC), 100 to 1000 nM; in experiment [2] (human PBMC) it was above 1000 nM.
As for `CCOC(=O)c1cnc2[nH]ccc2c1N[C@@H]1CCC[C@H](CCC#N)C1` (single isomer, unassigned; enantiomer 2) [Example 136, (cis) ethyl 4-((3-(2-cyanoethyl)cyclohexyl)amino)-1H-pyrrolo[2,3-b]pyridine-5-carboxylate, enantiomer 2], the IC50 on JAK1 was 10 to 100 nM; on JAK3 (a.a. 781-1124), 10 to 100 nM; in experiment [1] (Homo sapiens, PBMC), 100 to 1000 nM; in experiment [2] (Homo sapiens, PBMC) it was above 1000 nM.
Consider `CCOC(=O)c1cnc2[nH]ccc2c1N[C@H]1CN(C(=O)CC#N)CC[C@H]1C` [Example 3, ethyl 4-(((3R,4R)-1-(2-cyanoacetyl)-4-methylpiperidin-3-yl)amino)-1H-pyrrolo[2,3-b]pyridine-5-carboxylate], for which the IC50 was at most 10 nM on JAK1; at most 10 nM on JAK3 (a.a. 781-1124); at most 100 nM in experiment [1] (Homo sapiens, PBMC); 100 to 1000 nM in experiment [2] (Homo sapiens, PBMC).

The values above are taken from patent US10981906B2, “Substituted pyrrolopyridine JAK inhibitors and methods of making and using the same” (ACLARIS THERAPEUTICS, INC., priority 2017, dated 2021).
